Test results published in US20220193072A1, “METHODS OF TREATING BREAST CANCER WITH TETRAHYDRONAPHTHALENE DERIVATIVES AS ESTROGEN RECEPTOR DEGRADER” (Arvinas Operations, Inc., priority 2020, published 2022).
One block for each compound: values may come before it.

Key:
MCF7 cells [1] = assay: Live-cell imaging growth studies and EC50 for growth inhibition, MCF7; type: cell-based; settings: Homo sapiens, read-out: Approximate Half-maximal Effective Concentration (EC50) for growth inhibition
Description: (§1) MCF7, T47D, T47D ESR1 Y537S or T47D ESR1 D538G cells were seeded at 2×10^5 density per well in 6-well tissue culture-treated plates in DMEM/F12/10% FBS (2 mL total volume). […] The plate was then placed in the Incucyte® S3 Live-Cell Analysis System and images were acquired every 4 hours for a total of 5 days (120 hours). Data were analyzed using the Incucyte® Software v2020C which quantified cell surface area coverage as confluence values. Relative growth was calculated for all timepoints for all growth conditions relative to the confluence value observed for the control at 120 hours. Graphing and statistical analyses were performed using Graphpad Prism (GraphPad Software).

MCF7 cells [2] = assay: Luminescence-based MCF7 cell proliferation assay, dose-response matrix; settings: 5 days (120 hours)
Description: MCF7 cells were seeded at a density of 2×10^4 cells in 200 μL of media per well in 2 technical replicate, 96-well black, clear-bottom plates and incubated overnight at 37° C. in a 5% CO2 incubator. […] DMSO was used as the vehicle control. The plates were then incubated for 5 days at 37° C. in a 5% CO2 incubator.
The plates were equilibrated to room temperature for approximately 30 minutes. 50 μL of Cell-Titer Glo (Promega) was added to all wells of the plates, covered with aluminum foil and shaken gently by hand for less than 1 minute. The plates were then incubated for 10 minutes at room temperature. Luminescence was recorded using Envision Multi Label Reader. To assess cell viability, luminescence values for drug-treated wells were normalized to average luminescence of vehicle (DMSO) wells to obtain percent viability relative to control cells. The data were analyzed with the Combenefit software.

T47D cells = assay: Live-cell imaging growth studies and EC50 for growth inhibition, T47D; type: cell-based; settings: Homo sapiens, read-out: Approximate Half-maximal Effective Concentration (EC50) for growth inhibition
Description: as §1

T47D ESR1 Y537S cells = assay: Live-cell imaging growth studies and EC50 for growth inhibition, T47D ESR1 Y537S; type: cell-based; settings: Homo sapiens, read-out: Approximate Half-maximal Effective Concentration (EC50) for growth inhibition
Description: as §1

T47D ESR1 D538G cells = assay: Live-cell imaging growth studies and EC50 for growth inhibition, T47D ESR1 D538G; type: cell-based; settings: Homo sapiens; T47D ESR1 D537G (so in the source); read-out: Approximate Half-maximal Effective Concentration (EC50) for growth inhibition
Description: as §1

MCF7 xenograft [3] = assay: MCF7 orthotopic xenograft, combination with mTOR inhibitor everolimus; type: in vivo, NOD/SCID mice
Description: (§2) NOD/SCID female mice (Charles River, 6-7 weeks old upon arrival) were implanted with 17b-estradiol 0.72 mg 90-day pellets. The next day, each mouse was implanted with 5×10^6 MCF7 cells/100 mL per in the axial mammary fat pad. Compound administration was initiated once the tumors reached 175-200 mm^3. Diet was supplemented with peanut butter to help maintain body weights. […] (FIG. 28 and Table 13).
Error bars represent standard deviation.
(§3) The ratio of Tween 80 to PEG-400 is 0.02 g Tween 80 to 1 ml PEG-400. PEG-400 is added to a pre-aliquoted volume of Tween 80. • For everolimus: 10% DMSO, 90% (2% Tween 80, PEG 400) (DMSO/PEG/Tween) Sampling: tumors were measured twice weekly. Terminal sacrifice was ˜18 hr after last dose. Tumor volume calculation: Tumor Volume=(width×width×length)/2, where all measurements are in mm and the tumor volume is in mm^3. Tumor Growth Inhibition (TGI) calculation: TGI (%)

MCF7 xenograft [4] = assay: MCF7 orthotopic xenograft, combination with PI3K inhibitor alpelisib; type: in vivo, NOD/SCID mice
Description: as §2, with “[…]” for “mL per”, “weights. Dosing holidays occurred on days 6, 7, 8 and 9 due to body weight loss in some animals in study arms 3 and 4.” for “weights.”, “31” for “28”, “15).” for “13).”
Dosing holidays occurred on days 6, 7, 8 and 9. Error bars represent standard deviation.
as §3, with “alpelisib: 1% carboxymethylcellulose (CMC), 0.5%” for “everolimus: 10% DMSO, 90% (2%”, “80/DI water (‘CMC/Tween’)” for “80, PEG 400) (DMSO/PEG/Tween)”

[5] = system: tamoxifen-resistant MCF7 xenografts; assay: Tamoxifen-resistant MCF7 orthotopic xenograft tumor growth inhibition; type: in vivo, Nu/Nu mice
Description: Species: Ovariectomized Nu/Nu female mice. Animal handling: Axial mammary fat pad implantation of tamoxifen-resistant tumor fragment (from E45 passage. SC per mouse. Tamoxifen pellet (5 mg, 60-day release) was implanted under the same anesthesia as tumor fragment (pellet—dorsal; tumor—ventral).
Dosing: Oral (gavage), once a day for 28 days (QD×28)
(§4) Sampling: Tumors were measured twice weekly. Terminal sacrifice was ˜18 hr after last dose; tumors were harvested, divided, and flash frozen. ERα levels were determined by immunoblotting (see Appendix 1 for details).

ERα = molecular target: T1, ERα (Homo sapiens, UniProt P03372); assay: ERα levels in tamoxifen-resistant MCF7 xenografts (immunoblot); type: in vivo, Nu/Nu mice; settings: tamoxifen-resistant MCF7, palbociclib alone 60 mg/kg
T1 construct: robustly degrades ER in ER-positive breast cancer cell lines; endogenous in cells; host or cells: MCF7, T47D (cell culture); MCF7 and tamoxifen-resistant MCF7 xenograft tumours in mice
T1 sequence (P03372 1-595): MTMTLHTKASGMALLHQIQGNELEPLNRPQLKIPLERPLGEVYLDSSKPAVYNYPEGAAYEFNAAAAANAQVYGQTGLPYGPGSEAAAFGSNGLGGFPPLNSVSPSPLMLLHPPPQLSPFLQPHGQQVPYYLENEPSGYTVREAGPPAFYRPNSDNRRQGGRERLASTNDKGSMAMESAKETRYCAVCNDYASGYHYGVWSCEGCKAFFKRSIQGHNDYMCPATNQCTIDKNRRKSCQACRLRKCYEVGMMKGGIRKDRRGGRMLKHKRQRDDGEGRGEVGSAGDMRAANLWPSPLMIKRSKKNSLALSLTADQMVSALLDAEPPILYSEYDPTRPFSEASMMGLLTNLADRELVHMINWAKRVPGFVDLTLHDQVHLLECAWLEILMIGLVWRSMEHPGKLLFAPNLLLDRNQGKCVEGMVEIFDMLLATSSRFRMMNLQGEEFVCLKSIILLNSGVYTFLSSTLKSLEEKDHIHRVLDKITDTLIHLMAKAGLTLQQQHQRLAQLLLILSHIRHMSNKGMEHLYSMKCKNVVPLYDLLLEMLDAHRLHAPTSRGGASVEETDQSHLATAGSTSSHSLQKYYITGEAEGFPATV
Description: At study termination, the tumors were removed from the mice, and ERα levels were determined by immunoblotting the tumor homogenates. […] ERα levels from the various compound arms were compared to vehicle-treated animals by analyzing the tumor lysates on separate immunoblots (graphs in FIG. 10, FIG. 11, and FIG. 12 depict data from individual immunoblots) and the average ERα levels with standard deviation is shown.
as §4
Flash frozen tumors were removed from −80° C. storage and placed on dry ice. RIPA lysis buffer and Halt protease inhibitors were used at 400 μl per tumor sample. A steel ball (5 mm) was placed in each sample for tissue disruption. Samples were lysed with TissueLyzer at 24 Hz for 4 minutes. The homogenization was stopped half way through the process and the block flipped over for the duration of the process. […] Lysates were then measured for total protein concentration by BCA (per manufacturer's protocol). […]
Protein was transferred from gels to nitrocellulose with Bio-Rad Turbo on default setting. […] The blots were cut so that beta-actin and ERα can be detected from the same lane/sample. […]

[6] = everolimus 2.5 mg/kg oral QD x 26
[7] = alpelisib 25 mg/kg oral QD x 19
[8] = palbociclib 60 mg/kg oral QD x 28

EC50 (MCF7 cells [1]): 100 nM
EC50 (T47D cells): 100 nM
SMILES: Cc1nc(NC(=O)N2CCC[C@H]2C(N)=O)sc1-c1ccnc(C(C)(C)C(F)(F)F)c1 [Alpelisib, reference compound]
MCF7 cell proliferation, single agent (MCF7 cells [2]): dose-dependent decrease
Day 19 Tumor Volume (mean ± SD) (MCF7 xenograft [4]; [7]): 281 ± 37 mm^3
TGI (% vehicle) (MCF7 xenograft [4]; [7]): 74 % vehicle
tumor growth inhibition (TGI) (MCF7 xenograft [4]; alpelisib 25 mg/kg oral once daily, 19 days, dosing holidays days 6-9): 74%

EC50 (MCF7 cells [1]): 40 nM
EC50 (T47D cells): 30 nM
SMILES: C[C@H](Nc1ccc2c(c1)OCCn1cc(N3C(=O)OC[C@H]3C(F)F)nc1-2)C(N)=O [GDC-0077]
MCF7 cell proliferation, single agent (MCF7 cells [2]): dose-dependent decrease

effect on tumor ERα levels (ERα): did not reduce
SMILES: CC(=O)c1c(C)c2cnc(Nc3ccc(N4CCNCC4)cn3)nc2n(C2CCCC2)c1=O [Palbociclib, 6-acetyl-8-cyclopentyl-5-methyl-2-{[5-(piperazin-1-yl)pyridin-2-yl]amino}pyrido[2,3-d]pyrimidin-7(8H)-one, reference compound]
Day 28 Tumor volume (mean ± SD) [5, 8]: 222 ± 139 mm^3
TGI (% vehicle) [5, 8]: 91 % vehicle
tumor growth inhibition (TGI) ([5]; tamoxifen-resistant MCF7, palbociclib 60 mg/kg/day oral, 28 days): 91%

Continued, compound first:

SMILES: CC1(C)CCC(CN2CCN(c3ccc(C(=O)NS(=O)(=O)c4ccc(NCC5CCOCC5)c([N+](=O)[O-])c4)c(Oc4cnc5[nH]ccc5c4)c3)CC2)=C(c2ccc(Cl)cc2)C1 [Venetoclax]
EC50 (MCF7 cells [1]): 10000 nM

SMILES: CO[C@H]1C[C@@H]2CC[C@@H](C)[C@@](O)(O2)C(=O)C(=O)N2CCCC[C@H]2C(=O)O[C@H]([C@H](C)C[C@@H]2CC[C@@H](OCCO)[C@H](OC)C2)CC(=O)[C@H](C)/C=C(\C)[C@@H](O)[C@@H](OC)C(=O)[C@H](C)C[C@H](C)/C=C/C=C/C=C/1C [Everolimus, reference compound]
MCF7 cell proliferation, single agent (MCF7 cells [2]): dose-dependent decrease
EC50 (MCF7 cells [1]): 10 nM
EC50 (T47D cells): 100 nM
EC50 (T47D ESR1 Y537S cells): 10 nM
EC50 (T47D ESR1 D538G cells): 10 nM
Day 26 Tumor Volume (mean ± SD) (MCF7 xenograft [3]; [6]): 252 ± 50 mm^3
TGI (% vehicle) (MCF7 xenograft [3]; [6]): 89 % vehicle
tumor growth inhibition (TGI) (MCF7 xenograft [3]; everolimus 2.5 mg/kg oral once daily, 26 days): 89%

SMILES: CCN1CCN(Cc2ccc(Nc3ncc(F)c(-c4cc(F)c5nc(C)n(C(C)C)c5c4)n3)nc2)CC1 [Abemaciclib]
EC50 (MCF7 cells [1]): 40 nM
